How the values were obtained:
[1] = target: T1, Muscarinic acetylcholine receptor M1 (Homo sapiens, UniProt P11229); experiment: Affinity towards cloned Muscarinic acetylcholine receptor M1
T1 sequence (P11229 whole entry): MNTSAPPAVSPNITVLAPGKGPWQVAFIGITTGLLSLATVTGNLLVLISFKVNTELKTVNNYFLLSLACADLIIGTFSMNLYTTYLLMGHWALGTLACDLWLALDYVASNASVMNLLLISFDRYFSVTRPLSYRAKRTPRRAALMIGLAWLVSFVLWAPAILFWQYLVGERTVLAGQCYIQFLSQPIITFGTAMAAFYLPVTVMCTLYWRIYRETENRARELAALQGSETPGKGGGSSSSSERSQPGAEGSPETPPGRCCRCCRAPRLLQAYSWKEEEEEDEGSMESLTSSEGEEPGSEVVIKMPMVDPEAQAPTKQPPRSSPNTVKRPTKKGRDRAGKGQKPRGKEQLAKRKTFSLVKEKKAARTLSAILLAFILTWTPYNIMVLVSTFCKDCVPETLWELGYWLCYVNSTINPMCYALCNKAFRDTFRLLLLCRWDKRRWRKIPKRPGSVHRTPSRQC

[2] = target: T2, Muscarinic acetylcholine receptor M2 (Homo sapiens, UniProt P08172); experiment: Affinity towards cloned Muscarinic acetylcholine receptor M2
T2 sequence (P08172 whole entry): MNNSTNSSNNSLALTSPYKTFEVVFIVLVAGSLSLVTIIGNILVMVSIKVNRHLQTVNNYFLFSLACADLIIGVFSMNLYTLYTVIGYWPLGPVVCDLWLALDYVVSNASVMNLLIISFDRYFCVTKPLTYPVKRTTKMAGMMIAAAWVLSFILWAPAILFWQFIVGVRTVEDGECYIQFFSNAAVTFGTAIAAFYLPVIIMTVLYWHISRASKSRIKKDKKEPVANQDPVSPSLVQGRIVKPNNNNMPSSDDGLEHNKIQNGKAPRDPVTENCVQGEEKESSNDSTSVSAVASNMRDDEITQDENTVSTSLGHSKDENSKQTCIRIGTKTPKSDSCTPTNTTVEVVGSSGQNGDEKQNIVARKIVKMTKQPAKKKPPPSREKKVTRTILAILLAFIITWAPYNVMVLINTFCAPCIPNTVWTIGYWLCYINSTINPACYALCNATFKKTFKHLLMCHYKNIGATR

[3] = target: Muscarinic acetylcholine receptor M3 (Homo sapiens, UniProt P20309); experiment: Affinity towards cloned Muscarinic acetylcholine receptor M3
Chain of Muscarinic acetylcholine receptor M3 (P20309 whole entry): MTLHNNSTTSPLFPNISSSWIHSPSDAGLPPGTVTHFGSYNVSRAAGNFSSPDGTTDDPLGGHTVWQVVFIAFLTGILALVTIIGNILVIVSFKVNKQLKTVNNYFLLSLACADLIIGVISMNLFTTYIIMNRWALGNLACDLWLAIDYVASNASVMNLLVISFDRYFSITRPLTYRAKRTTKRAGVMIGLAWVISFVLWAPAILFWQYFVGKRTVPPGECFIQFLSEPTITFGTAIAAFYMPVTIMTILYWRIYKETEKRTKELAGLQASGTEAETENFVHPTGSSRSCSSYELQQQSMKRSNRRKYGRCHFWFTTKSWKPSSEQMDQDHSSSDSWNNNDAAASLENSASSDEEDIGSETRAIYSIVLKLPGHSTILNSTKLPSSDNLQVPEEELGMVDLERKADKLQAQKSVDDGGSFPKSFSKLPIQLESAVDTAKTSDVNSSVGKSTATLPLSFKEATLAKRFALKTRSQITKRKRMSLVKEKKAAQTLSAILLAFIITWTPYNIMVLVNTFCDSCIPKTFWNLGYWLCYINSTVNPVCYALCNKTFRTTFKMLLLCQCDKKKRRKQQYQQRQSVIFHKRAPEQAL

[4] = target: T3, Muscarinic acetylcholine receptor M4 (Homo sapiens, UniProt P08173); experiment: Affinity towards cloned Muscarinic acetylcholine receptor M4
T3 sequence (P08173 whole entry): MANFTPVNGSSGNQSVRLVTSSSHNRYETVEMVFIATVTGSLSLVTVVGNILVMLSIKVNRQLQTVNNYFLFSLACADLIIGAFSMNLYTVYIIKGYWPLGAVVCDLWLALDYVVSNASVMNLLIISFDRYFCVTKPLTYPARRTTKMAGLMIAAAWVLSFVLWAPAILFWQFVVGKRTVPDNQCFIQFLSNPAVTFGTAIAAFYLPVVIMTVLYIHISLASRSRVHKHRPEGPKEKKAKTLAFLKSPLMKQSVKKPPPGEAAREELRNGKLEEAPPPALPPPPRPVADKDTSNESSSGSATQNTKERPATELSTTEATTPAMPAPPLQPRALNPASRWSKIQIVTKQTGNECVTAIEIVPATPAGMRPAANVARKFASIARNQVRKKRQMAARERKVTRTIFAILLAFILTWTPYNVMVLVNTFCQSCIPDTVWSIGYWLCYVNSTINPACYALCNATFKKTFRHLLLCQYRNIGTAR

[5] = target: T4, Muscarinic acetylcholine receptor M5 (Homo sapiens, UniProt P08912); experiment: Affinity towards cloned Muscarinic acetylcholine receptor M5
T4 sequence (P08912 whole entry): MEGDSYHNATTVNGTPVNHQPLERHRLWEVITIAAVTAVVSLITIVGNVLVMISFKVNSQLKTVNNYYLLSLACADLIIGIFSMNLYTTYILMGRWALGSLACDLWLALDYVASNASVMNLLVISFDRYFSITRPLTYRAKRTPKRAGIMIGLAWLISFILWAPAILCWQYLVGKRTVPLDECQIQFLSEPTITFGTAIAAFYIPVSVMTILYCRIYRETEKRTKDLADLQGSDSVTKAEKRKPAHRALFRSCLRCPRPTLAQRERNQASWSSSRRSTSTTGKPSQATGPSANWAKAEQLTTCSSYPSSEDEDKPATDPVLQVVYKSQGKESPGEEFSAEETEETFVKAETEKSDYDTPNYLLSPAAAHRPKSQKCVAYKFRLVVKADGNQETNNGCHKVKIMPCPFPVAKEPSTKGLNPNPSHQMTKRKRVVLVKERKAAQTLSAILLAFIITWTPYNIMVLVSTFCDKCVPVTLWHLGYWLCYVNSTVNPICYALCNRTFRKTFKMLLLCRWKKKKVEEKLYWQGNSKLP

[6] = target: 5-hydroxytryptamine receptor 1D (Homo sapiens, UniProt P28221); experiment: In vitro binding affinity towards cloned human 5-HT1D receptor using [3H]5-carboximidotryptamine as radioligand
[7] = target: 5-hydroxytryptamine receptor 2A (Homo sapiens, UniProt P28223); experiment: In vitro binding affinity towards cloned human 5-HT2A receptor using [3H]5-carboximidotryptamine as radioligand
D(1A) dopamine receptor = D(1A) dopamine receptor (Homo sapiens, UniProt P21728); experiment: Affinity towards cloned Dopamine receptor D1
Chain of D(1A) dopamine receptor (P21728 whole entry): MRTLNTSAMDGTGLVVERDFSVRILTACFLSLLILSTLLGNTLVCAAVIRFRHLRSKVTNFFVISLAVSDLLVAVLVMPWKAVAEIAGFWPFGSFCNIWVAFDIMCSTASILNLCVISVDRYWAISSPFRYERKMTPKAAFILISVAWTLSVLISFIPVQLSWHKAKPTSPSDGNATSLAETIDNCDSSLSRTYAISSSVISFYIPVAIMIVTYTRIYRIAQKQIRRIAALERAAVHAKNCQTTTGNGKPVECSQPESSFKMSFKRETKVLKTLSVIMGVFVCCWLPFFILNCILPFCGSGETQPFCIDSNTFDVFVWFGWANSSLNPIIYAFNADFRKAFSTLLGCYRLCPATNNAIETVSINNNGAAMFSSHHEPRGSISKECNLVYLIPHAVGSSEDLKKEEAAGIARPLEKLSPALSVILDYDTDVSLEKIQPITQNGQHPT

D(2) dopamine receptor = D(2) dopamine receptor (Homo sapiens, UniProt P14416); experiment: Affinity towards cloned Dopamine receptor D2
Chain of D(2) dopamine receptor (P14416 whole entry): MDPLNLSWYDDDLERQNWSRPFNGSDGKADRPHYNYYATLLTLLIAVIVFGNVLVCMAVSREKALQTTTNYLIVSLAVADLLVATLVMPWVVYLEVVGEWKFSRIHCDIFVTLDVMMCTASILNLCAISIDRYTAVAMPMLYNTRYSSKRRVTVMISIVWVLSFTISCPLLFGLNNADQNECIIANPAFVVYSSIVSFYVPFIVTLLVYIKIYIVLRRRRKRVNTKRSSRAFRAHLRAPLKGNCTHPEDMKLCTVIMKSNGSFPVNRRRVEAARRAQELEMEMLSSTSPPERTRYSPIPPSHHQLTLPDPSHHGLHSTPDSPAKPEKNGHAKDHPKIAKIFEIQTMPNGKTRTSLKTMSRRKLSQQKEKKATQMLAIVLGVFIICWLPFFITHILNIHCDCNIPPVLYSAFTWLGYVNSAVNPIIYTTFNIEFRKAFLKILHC

D(3) dopamine receptor = D(3) dopamine receptor (Homo sapiens, UniProt P35462); experiment: Affinity towards cloned Dopamine receptor D3
D(1B) dopamine receptor = D(1B) dopamine receptor (Homo sapiens, UniProt P21918); experiment: Affinity towards cloned Dopamine receptor D5
Chain of D(1B) dopamine receptor (P21918 whole entry): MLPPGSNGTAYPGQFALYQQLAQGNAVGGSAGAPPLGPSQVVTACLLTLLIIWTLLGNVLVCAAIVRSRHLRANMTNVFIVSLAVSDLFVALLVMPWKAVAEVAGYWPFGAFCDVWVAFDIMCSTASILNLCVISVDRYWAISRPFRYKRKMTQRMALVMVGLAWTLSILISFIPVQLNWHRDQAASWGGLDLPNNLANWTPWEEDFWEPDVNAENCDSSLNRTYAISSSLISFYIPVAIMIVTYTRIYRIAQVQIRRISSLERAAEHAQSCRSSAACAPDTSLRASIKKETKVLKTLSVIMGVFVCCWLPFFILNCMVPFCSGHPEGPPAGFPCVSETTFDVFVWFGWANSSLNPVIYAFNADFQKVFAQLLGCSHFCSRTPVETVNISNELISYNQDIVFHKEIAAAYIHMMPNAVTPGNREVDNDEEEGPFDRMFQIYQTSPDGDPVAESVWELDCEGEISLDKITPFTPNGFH

Mu-type opioid receptor = Mu-type opioid receptor (Homo sapiens, UniProt P35372); experiment: Affinity towards cloned Opioid receptor mu 1
Chain of Mu-type opioid receptor (P35372 whole entry): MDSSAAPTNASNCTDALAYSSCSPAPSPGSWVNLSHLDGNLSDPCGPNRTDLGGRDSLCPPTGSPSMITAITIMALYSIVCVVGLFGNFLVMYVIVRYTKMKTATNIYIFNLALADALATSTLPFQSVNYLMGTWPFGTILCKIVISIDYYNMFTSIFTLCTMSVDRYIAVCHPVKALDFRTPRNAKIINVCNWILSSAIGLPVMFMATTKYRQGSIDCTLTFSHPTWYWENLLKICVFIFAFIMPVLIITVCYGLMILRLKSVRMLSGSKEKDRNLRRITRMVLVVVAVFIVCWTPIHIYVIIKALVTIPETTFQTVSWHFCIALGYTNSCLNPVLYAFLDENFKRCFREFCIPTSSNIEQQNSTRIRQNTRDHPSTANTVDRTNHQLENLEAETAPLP

Histamine H1 receptor = Histamine H1 receptor (Homo sapiens, UniProt P35367); experiment: Affinity towards cloned Histamine H1 receptor
Chain of Histamine H1 receptor (P35367 whole entry): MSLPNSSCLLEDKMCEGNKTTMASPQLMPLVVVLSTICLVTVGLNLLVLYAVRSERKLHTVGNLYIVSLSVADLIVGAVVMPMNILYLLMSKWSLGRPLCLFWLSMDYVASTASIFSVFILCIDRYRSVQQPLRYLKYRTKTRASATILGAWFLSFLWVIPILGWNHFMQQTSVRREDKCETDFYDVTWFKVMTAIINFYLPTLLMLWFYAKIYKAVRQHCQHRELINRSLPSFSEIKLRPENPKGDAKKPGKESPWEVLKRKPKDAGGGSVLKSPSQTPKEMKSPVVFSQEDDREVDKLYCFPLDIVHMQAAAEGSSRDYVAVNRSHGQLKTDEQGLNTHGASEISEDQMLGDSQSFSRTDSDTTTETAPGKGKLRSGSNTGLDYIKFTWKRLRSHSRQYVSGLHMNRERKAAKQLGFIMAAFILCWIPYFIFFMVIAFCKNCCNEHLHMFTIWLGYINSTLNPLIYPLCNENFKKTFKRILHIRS

[8] = target: Delta-type opioid receptor (Homo sapiens, UniProt P41143); experiment: Affinity towards cloned Opioid receptor delta 1
Chain of Delta-type opioid receptor (P41143 whole entry): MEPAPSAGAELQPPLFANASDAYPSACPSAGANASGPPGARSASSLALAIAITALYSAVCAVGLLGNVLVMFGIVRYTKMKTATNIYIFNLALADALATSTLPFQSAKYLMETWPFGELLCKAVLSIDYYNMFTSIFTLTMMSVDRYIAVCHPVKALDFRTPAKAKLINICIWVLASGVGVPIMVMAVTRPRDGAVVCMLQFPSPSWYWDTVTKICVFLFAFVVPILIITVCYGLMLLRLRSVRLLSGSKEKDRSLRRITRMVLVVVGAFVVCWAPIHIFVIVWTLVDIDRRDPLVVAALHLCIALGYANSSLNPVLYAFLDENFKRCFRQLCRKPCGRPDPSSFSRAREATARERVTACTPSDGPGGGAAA

[9] = target: Kappa-type opioid receptor (Homo sapiens, UniProt P41145); experiment: Affinity towards cloned Opioid receptor kappa 1
Chain of Kappa-type opioid receptor (P41145 whole entry): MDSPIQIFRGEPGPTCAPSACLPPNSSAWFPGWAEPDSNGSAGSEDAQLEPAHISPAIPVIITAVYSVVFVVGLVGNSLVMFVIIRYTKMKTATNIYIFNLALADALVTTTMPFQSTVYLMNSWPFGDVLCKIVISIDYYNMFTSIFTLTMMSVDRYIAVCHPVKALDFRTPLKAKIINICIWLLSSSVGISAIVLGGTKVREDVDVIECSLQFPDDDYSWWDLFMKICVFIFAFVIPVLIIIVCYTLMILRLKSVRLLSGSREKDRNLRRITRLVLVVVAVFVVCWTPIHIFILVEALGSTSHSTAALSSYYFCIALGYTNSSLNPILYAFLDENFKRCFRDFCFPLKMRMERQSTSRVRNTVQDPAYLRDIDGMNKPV

[10] = Affinity towards cloned Nicotinic acetylcholine receptor
[11] = target: 5-hydroxytryptamine receptor 1B (Homo sapiens, UniProt P28222); experiment: In vitro binding affinity towards cloned human 5-HT1B receptor using [3H]5-carboximidotryptamine as radioligand
Chain of 5-hydroxytryptamine receptor 1B (P28222 whole entry): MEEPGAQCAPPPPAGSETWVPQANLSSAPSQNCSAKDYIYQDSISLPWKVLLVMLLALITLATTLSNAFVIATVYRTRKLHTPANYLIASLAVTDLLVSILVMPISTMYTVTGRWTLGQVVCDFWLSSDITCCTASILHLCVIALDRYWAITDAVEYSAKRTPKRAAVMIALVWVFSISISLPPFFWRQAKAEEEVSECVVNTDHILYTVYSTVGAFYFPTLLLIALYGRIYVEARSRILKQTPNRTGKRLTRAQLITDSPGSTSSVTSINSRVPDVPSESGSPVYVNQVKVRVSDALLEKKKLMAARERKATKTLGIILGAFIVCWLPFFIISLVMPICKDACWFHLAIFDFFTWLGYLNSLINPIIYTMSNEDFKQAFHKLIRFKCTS

[12] = target: 5-hydroxytryptamine receptor 6 (Homo sapiens, UniProt P50406); experiment: In vitro binding affinity towards cloned human 5-HT6 receptor using [3H]5-carboximidotryptamine as radioligand
Chain of 5-hydroxytryptamine receptor 6 (P50406 whole entry): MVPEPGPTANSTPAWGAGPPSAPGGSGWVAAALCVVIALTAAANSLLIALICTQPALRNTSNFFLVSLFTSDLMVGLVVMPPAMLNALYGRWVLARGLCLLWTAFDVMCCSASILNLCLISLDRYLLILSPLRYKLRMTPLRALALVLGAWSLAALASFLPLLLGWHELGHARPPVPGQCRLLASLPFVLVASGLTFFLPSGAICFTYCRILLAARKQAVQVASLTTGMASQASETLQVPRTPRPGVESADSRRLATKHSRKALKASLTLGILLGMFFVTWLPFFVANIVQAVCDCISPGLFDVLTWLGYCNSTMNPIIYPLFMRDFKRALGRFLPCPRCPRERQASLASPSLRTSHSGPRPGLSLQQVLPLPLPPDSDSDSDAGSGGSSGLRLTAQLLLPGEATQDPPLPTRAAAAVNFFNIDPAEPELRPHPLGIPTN

[13] = target: 5-hydroxytryptamine receptor 7 (Homo sapiens, UniProt P34969); experiment: In vitro binding affinity towards cloned human 5-HT7 receptor using [3H]5-carboximidotryptamine as radioligand
Chain of 5-hydroxytryptamine receptor 7 (P34969 whole entry): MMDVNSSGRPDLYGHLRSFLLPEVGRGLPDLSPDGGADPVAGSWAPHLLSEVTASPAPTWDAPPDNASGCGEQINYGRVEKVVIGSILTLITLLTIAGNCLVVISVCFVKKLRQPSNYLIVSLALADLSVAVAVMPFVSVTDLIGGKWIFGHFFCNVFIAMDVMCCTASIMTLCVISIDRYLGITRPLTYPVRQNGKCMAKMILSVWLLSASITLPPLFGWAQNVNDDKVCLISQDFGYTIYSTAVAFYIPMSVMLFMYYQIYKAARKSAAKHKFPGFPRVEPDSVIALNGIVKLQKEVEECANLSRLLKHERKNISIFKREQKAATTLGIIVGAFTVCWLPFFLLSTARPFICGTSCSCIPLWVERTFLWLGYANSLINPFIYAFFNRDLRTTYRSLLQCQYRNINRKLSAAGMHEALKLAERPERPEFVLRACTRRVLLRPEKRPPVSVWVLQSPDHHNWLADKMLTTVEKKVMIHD

Ki [1] [µM]	Ki [2] [µM]	Ki [3] [µM]	Ki [4] [µM]	Ki [5] [µM]	Ki [6] [µM]	Ki [7] [µM]	Ki (D(1A) dopamine receptor) [µM]	Ki (D(2) dopamine receptor) [µM]	Ki (D(3) dopamine receptor) [µM]	Ki (D(1B) dopamine receptor) [µM]	Ki (Mu-type opioid receptor) [µM]	Ki (Histamine H1 receptor) [µM]	Ki [8] [µM]	Ki [9] [µM]	Ki [10] [µM]	Ki [11] [µM]	Ki [12] [µM]	Ki [13] [µM]	Structure (SMILES)
> 10	> 10	> 10	> 10	> 10	0.0154	> 10	> 10	> 10	> 10	> 10	> 10	> 10	> 10	> 10	> 10	0.00968	–	–	COc1ccccc1N1CCC(C(=O)Nc2ccc(OC)c(N3CCN(C)CC3)c2)CC1
> 10	> 10	> 10	> 10	> 10	0.345	0.614	> 10	> 10	> 10	> 10	> 10	> 10	> 10	> 10	> 10	0.0284	2.86	> 10	COc1ccc(NC(=O)N2CCN(c3ccc(C(F)(F)F)cc3)CC2)cc1N1CCN(C)CC1
> 10	> 10	> 10	> 10	> 10	0.168	4.45	> 10	> 10	> 10	> 10	> 10	> 10	> 10	> 10	> 10	0.0383	> 10	> 10	COc1ccc(NC(=O)N2CCN(c3ccc(F)cc3)CC2)cc1N1CCN(C)CC1
> 10	> 10	> 10	> 10	> 10	–	0.0427	> 10	> 10	> 10	> 10	> 10	> 10	> 10	> 10	> 10	0.00431	> 10	> 10	COc1ccc(NC(=O)c2ccc(-c3ccc(-c4noc(C)n4)cc3C)cc2)cc1N1CCN(C)CC1 [GR-127935]
> 10	> 10	> 10	> 10	> 10	0.0347	5.99	> 10	> 10	> 10	> 10	> 10	> 10	> 10	> 10	> 10	0.0113	0.469	0.342	COc1ccc(NC(=O)N2CCN(c3ccccc3Cl)CC2)cc1N1CCN(C)CC1
> 10	> 10	> 10	> 10	> 10	0.00651	1.01	> 10	> 10	> 10	> 10	> 10	> 10	> 10	> 10	> 10	0.00182	5.09	> 10	COc1ccc(NC(=O)N2CCN(c3ccc(Cl)cc3)CC2)cc1N1CCN(C)CC1
> 10	> 10	> 10	> 10	> 10	0.103	> 10	> 10	> 10	> 10	> 10	> 10	> 10	> 10	> 10	> 10	0.0181	0.841	> 10	COc1ccc(NC(=O)N2CCN(c3ccccc3F)CC2)cc1N1CCN(C)CC1
> 10	> 10	> 10	> 10	> 10	0.209	0.171	> 10	> 10	> 10	> 10	> 10	> 10	> 10	> 10	> 10	0.0137	1.43	> 10	COc1ccc(NC(=O)N2CCN(c3ccc(-c4ccccc4)cc3)CC2)cc1N1CCN(C)CC1
> 10	> 10	> 10	> 10	> 10	0.329	1.34	> 10	> 10	> 10	> 10	> 10	> 10	> 10	> 10	> 10	0.0167	> 10	> 10	COc1ccc(NC(=O)N2CCN(c3ccc(SC)cc3)CC2)cc1N1CCN(C)CC1
